Results published in ChEMBL document CHEMBL1134716, “Synthesis and evaluation of GGPP geometric isomers: divergent substrate specificities of FTase and GGTase I” (Bioorg Med Chem Lett, 2001).

Legend:
[1] = biological target: Protein farnesyltransferase (Homo sapiens) (UniProt P49354+P49356); test: Activity as substrate for recombinant mammalian Farnesyltransferase expressed in baculovirus; activity expressed as Vmax relative to the Vmax of E,E-FPP
[2] = system: CC(C)=CCC/C(C)=C/CC/C(C)=C/CC/C(C)=C\COP(=O)(O)OP(=O)(O)O; test: (§1) Kinetic constant for recombinant mammalian Farnesyltransferase expressed in baculovirus by fluorescence assay
[3] = system: CC(C)=CCC/C(C)=C\CC/C(C)=C/COP(=O)(O)OP(=O)(O)O; test: as §1
[4] = system: CC(C)=CCC/C(C)=C/CC/C(C)=C\COP(=O)(O)OP(=O)(O)O; test: as §1
[5] = system: CC(C)=CCC/C(C)=C/CC/C(C)=C\CC/C(C)=C/COP(=O)(O)OP(=O)(O)O; test: as §1

Krel [1] | Compound | further results
0.67 | CC(C)=CCC/C(C)=C/CC/C(C)=C/CC/C(C)=C\COP(=O)(O)OP(=O)(O)O | –
0.4 | CC(C)=CCC/C(C)=C/CC/C(C)=C\CC/C(C)=C/COP(=O)(O)OP(=O)(O)O | –
0.47 | CC(C)=CCC/C(C)=C/CC/C(C)=C\COP(=O)(O)OP(=O)(O)O | –
0.41 | CC(C)=CCC/C(C)=C\CC/C(C)=C/COP(=O)(O)OP(=O)(O)O | –
– | Protein farnesyltransferase (Homo sapiens) (from UniProt P49354+P49356) | Km [2]: 0.021 µM; Km [3]: 0.136 µM; Km [4]: 0.225 µM; Km [5]: 0.481 µM
